Results reported in doi:10.1101/2025.07.07.663444v1, “Antifungal therapeutic potential of Candida albicans Fun30: screening and validation of novel inhibitors against Candida albicans” (biorxiv, 2025).

Legend:
[1] = biological target: T1, CaFun30-c334 (Candida albicans, UniProt A0A1D8PTJ0); assay: biolayer interferometry (Octet R8, Ni-NTA sensor, protein immobilised); assay type: binding; conditions: PBS pH 7.4, 2 mM beta-mercaptoethanol; 1:1 model
T1 construct: gene FUN30; C-terminal fragment (RecA-like domain 2, motifs IV-VI, no ATPase activity), probably the last 334 residues; pCOLD I vector (N-terminal His tag implied), E. coli BL21(DE3) Rosetta, Ni-NTA purified
T1 sequence (A0A1D8PTJ0 764-1097): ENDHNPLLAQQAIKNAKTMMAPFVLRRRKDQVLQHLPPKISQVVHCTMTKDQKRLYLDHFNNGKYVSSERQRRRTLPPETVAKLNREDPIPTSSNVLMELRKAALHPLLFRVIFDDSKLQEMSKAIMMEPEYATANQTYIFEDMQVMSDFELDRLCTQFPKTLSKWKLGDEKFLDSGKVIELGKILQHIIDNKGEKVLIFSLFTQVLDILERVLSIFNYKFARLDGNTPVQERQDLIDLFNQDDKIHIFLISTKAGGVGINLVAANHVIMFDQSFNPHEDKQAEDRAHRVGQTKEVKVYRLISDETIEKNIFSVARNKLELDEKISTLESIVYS

[2] = biological target: T2, CaFun30 (Candida albicans, UniProt A0A1D8PTJ0); assay: as above; assay type: binding; conditions: PBS pH 7.4, 2 mM beta-mercaptoethanol; 1:1 model
T2 construct: gene FUN30; full length, cloned NheI/XhoI in pET21c(+), expressed in E. coli BL21(DE3) Rosetta, Ni-NTA purified
T2 sequence (A0A1D8PTJ0 1-1097): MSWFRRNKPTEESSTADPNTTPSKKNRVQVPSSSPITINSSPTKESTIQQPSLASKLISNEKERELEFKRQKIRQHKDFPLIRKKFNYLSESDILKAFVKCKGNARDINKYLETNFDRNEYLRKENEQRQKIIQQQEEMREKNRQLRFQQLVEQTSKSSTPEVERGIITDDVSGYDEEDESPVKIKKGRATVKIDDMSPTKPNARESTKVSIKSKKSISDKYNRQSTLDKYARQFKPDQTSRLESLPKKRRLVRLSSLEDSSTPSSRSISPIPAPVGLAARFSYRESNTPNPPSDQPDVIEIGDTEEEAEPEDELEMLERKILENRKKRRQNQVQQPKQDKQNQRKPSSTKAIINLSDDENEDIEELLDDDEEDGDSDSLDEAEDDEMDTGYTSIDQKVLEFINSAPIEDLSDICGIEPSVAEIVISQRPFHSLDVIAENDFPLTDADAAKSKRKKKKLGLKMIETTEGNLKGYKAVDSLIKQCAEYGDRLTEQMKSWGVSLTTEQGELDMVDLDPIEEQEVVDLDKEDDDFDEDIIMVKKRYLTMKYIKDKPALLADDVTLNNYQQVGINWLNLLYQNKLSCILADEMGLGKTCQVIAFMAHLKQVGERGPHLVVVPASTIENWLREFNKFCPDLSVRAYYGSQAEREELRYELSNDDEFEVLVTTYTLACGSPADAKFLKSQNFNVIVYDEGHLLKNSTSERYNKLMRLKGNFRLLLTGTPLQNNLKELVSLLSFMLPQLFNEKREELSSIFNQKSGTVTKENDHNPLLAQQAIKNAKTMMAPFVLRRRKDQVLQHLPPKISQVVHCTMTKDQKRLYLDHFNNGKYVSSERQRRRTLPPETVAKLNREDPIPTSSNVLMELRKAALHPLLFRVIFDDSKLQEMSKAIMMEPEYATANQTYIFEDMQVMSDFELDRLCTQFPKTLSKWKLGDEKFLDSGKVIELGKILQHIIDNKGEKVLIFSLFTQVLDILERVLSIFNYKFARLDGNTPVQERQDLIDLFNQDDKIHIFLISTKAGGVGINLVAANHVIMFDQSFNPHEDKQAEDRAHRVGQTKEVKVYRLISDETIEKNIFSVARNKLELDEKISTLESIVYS

Row | Structure (SMILES) | Kd [1] [µM] | Kd [2] [µM]
1 | Cc1nnc2sc(SCC(=O)Nc3ccc(Cl)cc3)nn2c1=O [F1853-0039] | 0.87 | 0.6
2 | Cc1ccc(NC(=O)CSc2nc(C(F)(F)F)cc(=O)[nH]2)cc1Cl [F2716-0594] | 25.1 | 680
3 | CCc1cc2c(=O)c(-c3ccc(F)cc3)c(C)oc2cc1OCc1ccccc1 [F1067-0218] | 18 | 125
